Test results reported in patent publication US10933051B2, “Carbapenem compounds and compositions for the treatment of bacterial infections” (FOB Synthesis, Inc., priority 2017, dated 2021).

Key:
Assay in all cases: Antimicrobial Susceptibility Test (CLSI), Test Example 3
Format in all cases: cell-based
Set-up in all cases: unit not given here
[1] = system: A. baumannii FSAb-029; settings: Table 6; strain produces OXA-2, IMP-1
Procedure: (§1) Antimicrobial Susceptibility Test was performed by the CLSI (Clinical and Laboratory Standards Institute) methods. The agar dilution method for determining antimicrobial susceptibility was carried out using Mueller Hinton-II agar and the amount of inoculation was 10^4CFU/spot. Broth dilution tests were performed using the Mueller Hinton-II broth. All assays were run with the indicated control strains, available from the ATCC (American Type Culture Collection, Rockville, Md.).

[2] = system: P. aeruginosa FSPa-141; settings: Table 6; strain produces VIM-2
Procedure: as §1

[3] = system: K. pneumoniae BAA-1904; settings: Table 6; strain produces KPC-3
Procedure: as §1

[4] = system: P. aeruginosa FSPa-102; settings: Table 6; strain produces IMP-1
Procedure: as §1

[5] = system: A. baumannii FSAb-141; settings: Table 6; strain produces PER-1, OXA-23, 51, 66
Procedure: as §1

[6] = system: A. baumannii FSAb-056; settings: Table 6; strain produces OXA-23, 51
Procedure: as §1

[7] = system: E. coli FSEco-054; settings: Table 6; strain produces ESBL
Procedure: as §1

[8] = system: A. baumannii FSAb-039; settings: Table 6; strain produces OXA-51
Procedure: as §1

Compound | antimicrobial susceptibility, Ab FSAb-029 [1] | antimicrobial susceptibility, Pa FSPa-141 [2] | antimicrobial susceptibility, Kp BAA-1904 [3] | antimicrobial susceptibility, Pa FSPa-102 [4] | antimicrobial susceptibility, Ab FSAb-141 [5] | antimicrobial susceptibility, Ab FSAb-056 [6] | antimicrobial susceptibility, Ec FSEco-054 [7] | antimicrobial susceptibility, Ab FSAb-039 [8]
C[C@@H](O)[C@H]1C(=O)N2C(C(=O)O)=C(CN(CCCCNC(=O)c3ccc(O)c(O)c3F)CCCNC(=O)c3ccc(O)c(O)c3F)[C@H](C)[C@H]12 [Compound 104] | 0.5 | 4 | >32 | 2 | 1 | 4 | 1 | 2
C[C@@H](O)[C@H]1C(=O)N2C(C(=O)O)=C(CN(CCNC(=O)c3ccc(O)c(O)c3Cl)CCNC(=O)c3ccc(O)c(O)c3Cl)[C@H](C)[C@H]12 [Compound 105] | 0.5 | 0.5 | 16 | 1 | 0.5 | 2 | 1 | 2
C[C@@H](O)[C@H]1C(=O)N2C(C(=O)O)=C(CN(CCCNC(=O)c3ccc(O)c(O)c3Cl)CCNC(=O)c3ccc(O)c(O)c3Cl)[C@H](C)[C@H]12 [Compound 106] | 0.25 | 1 | >32 | 1 | 0.5 | 2 | 1 | 1
C[C@@H](O)[C@H]1C(=O)N2C(C(=O)O)=C(CN(CCCNC(=O)c3ccc(O)c(O)c3Cl)CCCNC(=O)c3ccc(O)c(O)c3Cl)[C@H](C)[C@H]12 [Compound 107] | 0.25 | 1 | >32 | 1 | 0.5 | 2 | 0.5 | 1
C[C@@H](O)[C@H]1C(=O)N2C(C(=O)O)=C(CN(CCCCNC(=O)c3ccc(O)c(O)c3Cl)CCCNC(=O)c3ccc(O)c(O)c3Cl)[C@H](C)[C@H]12 [Compound 108] | 1 | 2 | >32 | 2 | 1 | 4 | 1 | 2
C[C@@H](O)[C@H]1C(=O)N2C(C(=O)O)=C(CN(CCCNC(=O)c3ccc(O)c(O)c3)CCNC(=O)c3ccc(O)c(O)c3)[C@H](C)[C@H]12 [Compound 109] | 1 | 4 | >32 | 4 | 2 | 4 | 2 | 2
C[C@@H](O)[C@H]1C(=O)N2C(C(=O)O)=C(CN(CCCNC(=O)c3ccc(O)c(O)c3)CCCNC(=O)c3ccc(O)c(O)c3)[C@H](C)[C@H]12 [Compound 110] | 2 | 16 | >32 | 8 | 4 | 8 | 4 | 8
C[C@@H](O)[C@H]1C(=O)N2C(C(=O)O)=C(CN(CCCCNC(=O)c3ccc(O)c(O)c3)CCCNC(=O)c3ccc(O)c(O)c3)[C@H](C)[C@H]12 [Compound 111] | 2 | 16 | >32 | 4 | 2 | 8 | 4 | 4
C[C@@H](O)[C@H]1C(=O)N2C(C(=O)O)=C(CN(CCCNC(=O)c3cccc(O)c3O)CCNC(=O)c3cccc(O)c3O)[C@H](C)[C@H]12 [Compound 112] | 4 | >32 | >32 | 16 | 4 | 32 | 8 | 8
C[C@@H](O)[C@H]1C(=O)N2C(C(=O)O)=C(CN(CCCCNC(=O)c3cccc(O)c3O)CCCNC(=O)c3cccc(O)c3O)[C@H](C)[C@H]12 [Compound 113] | >32 | >32 | >32 | >32 | >32 | >32 | >32 | >32
C[C@@H](O)[C@H]1C(=O)N2C(C(=O)[O-])=C(C[N+](C)(CCCNC(=O)c3ccc(O)c(O)c3F)CCCNC(=O)c3ccc(O)c(O)c3F)[C@H](C)[C@H]12 [Compound 114] | 1 | 4 | >32 | 4 | 2 | 8 | 2 | 32
